Experimental data from publication PMC12624955, “Exploring diarylheptanoid derivatives to target LIMK1 as potential agents against colorectal cancer” (Journal of Enzyme Inhibition and Medicinal Chemistry, 2025).

Legend:
DAPK1 = molecular target: T1, DAPK1 (Homo sapiens, UniProt P53355); assay: SelectScreen kinase panel, Adapta Universal kinase assay; format: biochemical; conditions: read-out: Inhibition percentage at 1 μM
T1 construct: purchased Thermo Fisher Scientific SelectScreen
Description: Kinase panel screening was carried out using the SelectScreen Kinase Assay (Thermo Fisher Scientific, Waltham, MA, USA). Three complementary assay formats were applied: the Z′-LYTE kinase assay, LanthaScreen Eu kinase binding assay, and Adapta Universal kinase assay. The kinases selected for this study and the corresponding assay formats are summarised in Supplementary Table S1. The Adapta Universal Kinase Assay (Thermo Fisher Scientific, Waltham, MA, USA) was used to assess kinase activity. This homogeneous, fluorescence-based immunoassay quantifies kinase activity by detecting ADP produced during the enzymatic reaction, according to the manufacturer’s instructions (https://www.thermofisher.com/tw/zt/home/industrial/pharma-biopharma/drug-discovery-development/target-and-lead-identification-and-validation/kinasebiology/kinase-activity-assays/adapta-universal-kinase-assay.html).

HT-29 [1] = assay: MTT assay (cell viability); format: cell-based; conditions: Homo sapiens, 72 h, mean ± SD
Description: (§1) Colorectal cell line, HCT-116, was purchased from the Bioresource Collection and Research Centre (BCRC, Hsinchu, Taiwan), while HT-29 was obtained from the American Type Culture Collection (ATCC, Manassas, VA, USA). Both cell lines were maintained in McCoy’s 5 A medium (with L-glutamine and 2.2 g/L NaHCO3, M4892, Sigma) supplemented with 10% foetal bovine serum (Corning Incorporated, NY, USA) and 1% penicillin–streptomycin–amphotericin B (100 unit/ml penicillin G, 0.1 mg/ml streptomycin sulphate, 0.25 μg/ml amphotericin B, Corning Incorporated, NY, USA). All cultures were maintained in a humidified incubator at 37 °C with 5% CO2.
(§2) Cells were seeded in 96-well plates at a density of 3 × 10^3 cells/well in 100 μl of culture medium and treated with compounds at the indicated concentrations (0.3, 1, 3, 10, and 30 μM) for 72 h. Following treatment, the 3-(4,5-dimethylthiazol-2-yl)-2,5-diphenyltetrazolium bromide (MTT) solution (5 mg/ml in Phosphate-buffered saline (PBS)) was added to each well to reach a final concentration of 0.5 mg/ml, and the cells were incubated at 37 °C for 1 h. The resulting formazan crystal was dissolved in 100 µl of DMSO, and the absorbance was measured at 550 nm using an ELISA reader (Molecular Device, Sunnyvale, CA, USA).

HCT-116 [2] = assay: MTT assay (cell viability); format: cell-based; conditions: Homo sapiens, 72 h, mean ± SD
Description: as §1, §2

HT-29 [3] = assay: Sulforhodamine B assay (cell proliferation); format: cell-based; conditions: Homo sapiens, SRB assay, 72 h, mean ± SD
Description: as §1
(§3) Cells were seeded in 96-well plates at a density of 3 × 10^3 cells/well in 100 μl of culture medium and treated with compounds at the indicated concentrations for 72 h. After treatment, cells were fixed with 10% trichloroacetic acid for 20 min and washed with H2O. The cells were then stained with 0.4% sulforhodamine B (SRB) in 1% acetic acid for 20 min, followed by two washes with 1% acetic acid. After the well-dried, the protein-bound dye was dissolved in 100 µl of 10 mM Tris base solution, and the absorbance was measured at 515 nm using an ELISA reader (Molecular Device, Sunnyvale, CA, USA).

HCT-116 [4] = assay: Sulforhodamine B assay (cell proliferation); format: cell-based; conditions: Homo sapiens, SRB assay, 72 h, mean ± SD
Description: as §1, §3

EPHA3 = molecular target: T2, EPHA3 (Homo sapiens, UniProt P29320); assay: SelectScreen kinase panel, LanthaScreen Eu kinase binding assay; conditions: read-out: Inhibition percentage at 1 μM
T2 construct: purchased Thermo Fisher Scientific SelectScreen
Description: (§4) The inhibitory activities of the compounds against kinases were tested using the SelectScreen Kinase assay from Thermo Fisher Scientific in Waltham, MA, USA. The LanthaScreen Eu kinase binding assay was used to validate the LIMK1 inhibition activity of the compounds, and was performed according to the manufacturer’s protocol (https://www.thermofisher.com/tw/zt/home/industrial/pharma-biopharma/drug-discovery-development/target-and-lead-identification-and-validation/kinasebiology/kinase-activity-assays/lanthascreentm-eu-kinase-binding-assay/lanthascreen-eu-kinase-binding-assay-validation-table.html). This endpoint assay quantifies inhibitor binding through the displacement of a fluorescently labelled ATP-competitive tracer from LIMK1. A mixture of the 100× compounds, 2× LIMK1/antibody mixture (Eu-anti-His), 4× tracer 236, and kinase buffer were mixed sequentially. After incubation at room temperature for 1 h, the mixture was analysed using a fluorescence plate reader. The kinase inhibition assay results were expressed as the average of two replicates.
(§5) Kinase panel screening was carried out using the SelectScreen Kinase Assay (Thermo Fisher Scientific, Waltham, MA, USA). Three complementary assay formats were applied: the Z′-LYTE kinase assay, LanthaScreen Eu kinase binding assay, and Adapta Universal kinase assay. The kinases selected for this study and the corresponding assay formats are summarised in Supplementary Table S1.

VRK2 = molecular target: T3, VRK2 (Homo sapiens, UniProt Q86Y07); assay: as above; conditions: read-out: Inhibition percentage at 1 μM
T3 construct: purchased Thermo Fisher Scientific SelectScreen
T3 sequence (Q86Y07 whole entry): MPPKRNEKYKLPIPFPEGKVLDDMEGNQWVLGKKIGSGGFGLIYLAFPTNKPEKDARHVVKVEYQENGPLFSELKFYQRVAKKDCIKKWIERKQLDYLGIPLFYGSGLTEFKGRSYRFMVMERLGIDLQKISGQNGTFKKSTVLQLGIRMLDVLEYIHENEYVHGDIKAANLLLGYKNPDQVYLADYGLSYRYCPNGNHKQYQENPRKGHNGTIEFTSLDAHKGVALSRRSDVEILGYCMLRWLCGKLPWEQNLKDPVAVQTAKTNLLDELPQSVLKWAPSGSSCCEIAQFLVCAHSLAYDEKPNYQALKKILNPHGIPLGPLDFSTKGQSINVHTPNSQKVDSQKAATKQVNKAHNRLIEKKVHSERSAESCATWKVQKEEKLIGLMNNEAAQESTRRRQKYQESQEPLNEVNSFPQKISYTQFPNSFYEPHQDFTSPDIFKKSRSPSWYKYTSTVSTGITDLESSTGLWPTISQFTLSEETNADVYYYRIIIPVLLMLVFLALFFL
Description: as §4, §5

TGFBR1 (ALK5) = molecular target: T4, TGFBR1 (ALK5) (Homo sapiens, UniProt P36897); assay: as above; conditions: read-out: Inhibition percentage at 1 μM
T4 construct: purchased Thermo Fisher Scientific SelectScreen
Description: as §4, §5

MAP2K1 (MEK1) = molecular target: T5, MAP2K1 (MEK1) (Homo sapiens, UniProt Q02750); assay: as above; conditions: read-out: Inhibition percentage at 1 μM
T5 construct: purchased Thermo Fisher Scientific SelectScreen
T5 sequence (Q02750 whole entry): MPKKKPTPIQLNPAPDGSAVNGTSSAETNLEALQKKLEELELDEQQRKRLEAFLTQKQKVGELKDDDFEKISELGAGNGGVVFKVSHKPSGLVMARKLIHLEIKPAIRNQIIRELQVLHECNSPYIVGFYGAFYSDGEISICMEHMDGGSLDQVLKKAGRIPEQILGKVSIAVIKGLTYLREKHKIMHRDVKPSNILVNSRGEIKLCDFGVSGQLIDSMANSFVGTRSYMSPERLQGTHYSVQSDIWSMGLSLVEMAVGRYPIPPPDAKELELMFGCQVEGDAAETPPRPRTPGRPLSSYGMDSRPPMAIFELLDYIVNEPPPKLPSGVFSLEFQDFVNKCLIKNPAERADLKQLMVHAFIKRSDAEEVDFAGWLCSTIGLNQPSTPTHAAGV
Description: as §4, §5

BRAF = molecular target: T6, BRAF (Homo sapiens, UniProt P15056); assay: as above; conditions: read-out: Inhibition percentage at 1 μM
T6 construct: purchased Thermo Fisher Scientific SelectScreen
T6 sequence (P15056 whole entry): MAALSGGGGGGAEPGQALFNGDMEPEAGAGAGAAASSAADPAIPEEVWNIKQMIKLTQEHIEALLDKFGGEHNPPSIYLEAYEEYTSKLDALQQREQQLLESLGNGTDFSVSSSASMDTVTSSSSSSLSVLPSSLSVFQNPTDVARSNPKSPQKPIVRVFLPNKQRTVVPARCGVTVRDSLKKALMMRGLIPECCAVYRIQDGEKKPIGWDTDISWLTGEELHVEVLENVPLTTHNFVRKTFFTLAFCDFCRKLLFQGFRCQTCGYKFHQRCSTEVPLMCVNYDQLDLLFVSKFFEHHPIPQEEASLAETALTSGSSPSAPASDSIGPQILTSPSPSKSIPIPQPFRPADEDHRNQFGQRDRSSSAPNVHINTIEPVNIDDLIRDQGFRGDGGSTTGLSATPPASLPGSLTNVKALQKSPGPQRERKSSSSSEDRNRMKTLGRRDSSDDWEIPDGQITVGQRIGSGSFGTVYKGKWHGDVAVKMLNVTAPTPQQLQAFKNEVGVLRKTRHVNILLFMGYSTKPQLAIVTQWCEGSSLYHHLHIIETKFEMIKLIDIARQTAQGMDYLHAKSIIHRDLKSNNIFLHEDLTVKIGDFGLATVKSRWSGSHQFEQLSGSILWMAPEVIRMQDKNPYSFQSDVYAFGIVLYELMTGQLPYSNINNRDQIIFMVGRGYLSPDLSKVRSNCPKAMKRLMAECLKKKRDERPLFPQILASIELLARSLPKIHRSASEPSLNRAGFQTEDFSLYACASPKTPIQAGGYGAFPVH
Description: as §4, §5

WEE1 = molecular target: T7, WEE1 (Homo sapiens, UniProt P30291); assay: as above; conditions: read-out: Inhibition percentage at 1 μM
T7 construct: purchased Thermo Fisher Scientific SelectScreen
T7 sequence (P30291 whole entry): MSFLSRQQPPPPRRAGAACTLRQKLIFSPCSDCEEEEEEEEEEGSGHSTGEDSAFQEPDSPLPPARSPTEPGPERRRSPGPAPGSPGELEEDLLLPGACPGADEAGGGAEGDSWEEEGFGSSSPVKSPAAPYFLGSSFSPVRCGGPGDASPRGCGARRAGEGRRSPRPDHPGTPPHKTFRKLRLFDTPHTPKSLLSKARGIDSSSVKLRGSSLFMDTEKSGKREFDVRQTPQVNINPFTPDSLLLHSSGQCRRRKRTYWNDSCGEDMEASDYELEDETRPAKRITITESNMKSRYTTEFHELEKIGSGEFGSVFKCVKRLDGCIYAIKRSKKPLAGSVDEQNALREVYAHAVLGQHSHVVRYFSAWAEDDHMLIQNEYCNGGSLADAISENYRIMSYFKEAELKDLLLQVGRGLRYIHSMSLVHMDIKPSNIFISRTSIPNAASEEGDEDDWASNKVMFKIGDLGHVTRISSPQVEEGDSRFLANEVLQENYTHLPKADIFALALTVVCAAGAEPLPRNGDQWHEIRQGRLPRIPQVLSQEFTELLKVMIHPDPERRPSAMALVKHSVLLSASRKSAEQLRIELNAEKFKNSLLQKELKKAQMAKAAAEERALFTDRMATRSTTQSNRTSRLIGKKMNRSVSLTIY
Description: as §4, §5

ICK = molecular target: T8, ICK (Homo sapiens, UniProt Q9UPZ9); assay: as above; conditions: read-out: Inhibition percentage at 1 μM
T8 construct: purchased Thermo Fisher Scientific SelectScreen
T8 sequence (Q9UPZ9 whole entry): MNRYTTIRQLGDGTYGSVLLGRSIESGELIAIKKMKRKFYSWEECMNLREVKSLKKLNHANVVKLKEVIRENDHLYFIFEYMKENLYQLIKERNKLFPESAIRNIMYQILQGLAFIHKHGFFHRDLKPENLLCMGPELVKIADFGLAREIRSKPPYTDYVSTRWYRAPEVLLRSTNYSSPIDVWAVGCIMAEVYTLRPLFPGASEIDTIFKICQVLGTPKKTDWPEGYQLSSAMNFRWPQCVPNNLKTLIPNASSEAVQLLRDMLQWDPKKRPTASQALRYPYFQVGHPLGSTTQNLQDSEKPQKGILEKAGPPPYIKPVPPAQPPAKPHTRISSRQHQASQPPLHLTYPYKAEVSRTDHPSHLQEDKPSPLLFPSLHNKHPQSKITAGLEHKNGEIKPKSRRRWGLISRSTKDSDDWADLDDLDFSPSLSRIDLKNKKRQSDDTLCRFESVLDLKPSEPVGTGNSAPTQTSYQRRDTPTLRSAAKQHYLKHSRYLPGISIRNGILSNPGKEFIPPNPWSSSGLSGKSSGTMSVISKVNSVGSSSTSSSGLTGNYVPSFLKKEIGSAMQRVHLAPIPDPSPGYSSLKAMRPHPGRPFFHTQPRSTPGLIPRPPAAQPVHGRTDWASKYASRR
Description: as §4, §5

LIMK2 = molecular target: T9, LIMK2 (Homo sapiens, UniProt P53671); assay: as above; conditions: read-out: Inhibition percentage at 1 μM
T9 construct: purchased Thermo Fisher Scientific SelectScreen
T9 sequence (P53671 whole entry): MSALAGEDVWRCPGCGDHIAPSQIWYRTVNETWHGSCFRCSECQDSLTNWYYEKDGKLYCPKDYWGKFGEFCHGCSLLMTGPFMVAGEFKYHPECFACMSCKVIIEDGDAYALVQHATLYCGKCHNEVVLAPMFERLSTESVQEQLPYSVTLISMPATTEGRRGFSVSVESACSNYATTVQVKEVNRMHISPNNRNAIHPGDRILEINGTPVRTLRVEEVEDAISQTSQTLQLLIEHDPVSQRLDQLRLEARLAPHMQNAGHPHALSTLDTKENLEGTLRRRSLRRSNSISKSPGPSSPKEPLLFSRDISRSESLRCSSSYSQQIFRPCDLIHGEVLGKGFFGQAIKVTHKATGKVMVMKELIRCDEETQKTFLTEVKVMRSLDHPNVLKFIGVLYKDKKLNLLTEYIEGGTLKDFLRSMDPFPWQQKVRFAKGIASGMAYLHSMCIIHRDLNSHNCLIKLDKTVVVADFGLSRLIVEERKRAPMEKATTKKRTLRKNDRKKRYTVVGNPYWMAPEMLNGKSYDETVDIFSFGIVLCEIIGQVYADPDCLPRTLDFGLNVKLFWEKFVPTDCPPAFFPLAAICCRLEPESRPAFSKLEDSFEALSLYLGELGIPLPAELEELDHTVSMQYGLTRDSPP
Description: as §4, §5

[5] = test system: panel of 40 kinases from various families; assay: Kinase panel screening (SelectScreen), whole panel; format: biochemical; conditions: all 40 kinases; 1 μM
Description: as §5
The Z′-LYTE Kinase Assay (Thermo Fisher Scientific, Waltham, MA, USA) was used to evaluate selected kinases’ activity, according to the manufacturer’s instructions (https://www.thermofisher.com/tw/zt/home/industrial/pharma-biopharma/drug-discovery-development/target-and-lead-identification-and-validation/kinasebiology/kinase-activity-assays/z-lyte/z-lyte-reactivity-table.html). This endpoint assay quantifies kinase activity by detecting peptide substrate phosphorylation. Briefly, a 2× mixture of selected kinase and relevant substrate was prepared in kinase buffer (0.01% polyoxyethylene lauryl ether (BRIJ-35), 50 mM 4-(2-hydroxyethyl)-1-piperazineethanesulfonic acid (HEPES), pH 7.5, 1 mM ethylene glycol-bis(β-aminoethyl ether)-N,N,N′,N′-tetraacetic acid (EGTA), and 10 mM MgCl2). After 1 h incubation at room temperature, 5 μl of 1:128 diluted development reagent solution was added, followed by an additional 1 h incubation. Fluorescence was recorded using a multimode plate reader. […]

T1 sequence (P53355 whole entry): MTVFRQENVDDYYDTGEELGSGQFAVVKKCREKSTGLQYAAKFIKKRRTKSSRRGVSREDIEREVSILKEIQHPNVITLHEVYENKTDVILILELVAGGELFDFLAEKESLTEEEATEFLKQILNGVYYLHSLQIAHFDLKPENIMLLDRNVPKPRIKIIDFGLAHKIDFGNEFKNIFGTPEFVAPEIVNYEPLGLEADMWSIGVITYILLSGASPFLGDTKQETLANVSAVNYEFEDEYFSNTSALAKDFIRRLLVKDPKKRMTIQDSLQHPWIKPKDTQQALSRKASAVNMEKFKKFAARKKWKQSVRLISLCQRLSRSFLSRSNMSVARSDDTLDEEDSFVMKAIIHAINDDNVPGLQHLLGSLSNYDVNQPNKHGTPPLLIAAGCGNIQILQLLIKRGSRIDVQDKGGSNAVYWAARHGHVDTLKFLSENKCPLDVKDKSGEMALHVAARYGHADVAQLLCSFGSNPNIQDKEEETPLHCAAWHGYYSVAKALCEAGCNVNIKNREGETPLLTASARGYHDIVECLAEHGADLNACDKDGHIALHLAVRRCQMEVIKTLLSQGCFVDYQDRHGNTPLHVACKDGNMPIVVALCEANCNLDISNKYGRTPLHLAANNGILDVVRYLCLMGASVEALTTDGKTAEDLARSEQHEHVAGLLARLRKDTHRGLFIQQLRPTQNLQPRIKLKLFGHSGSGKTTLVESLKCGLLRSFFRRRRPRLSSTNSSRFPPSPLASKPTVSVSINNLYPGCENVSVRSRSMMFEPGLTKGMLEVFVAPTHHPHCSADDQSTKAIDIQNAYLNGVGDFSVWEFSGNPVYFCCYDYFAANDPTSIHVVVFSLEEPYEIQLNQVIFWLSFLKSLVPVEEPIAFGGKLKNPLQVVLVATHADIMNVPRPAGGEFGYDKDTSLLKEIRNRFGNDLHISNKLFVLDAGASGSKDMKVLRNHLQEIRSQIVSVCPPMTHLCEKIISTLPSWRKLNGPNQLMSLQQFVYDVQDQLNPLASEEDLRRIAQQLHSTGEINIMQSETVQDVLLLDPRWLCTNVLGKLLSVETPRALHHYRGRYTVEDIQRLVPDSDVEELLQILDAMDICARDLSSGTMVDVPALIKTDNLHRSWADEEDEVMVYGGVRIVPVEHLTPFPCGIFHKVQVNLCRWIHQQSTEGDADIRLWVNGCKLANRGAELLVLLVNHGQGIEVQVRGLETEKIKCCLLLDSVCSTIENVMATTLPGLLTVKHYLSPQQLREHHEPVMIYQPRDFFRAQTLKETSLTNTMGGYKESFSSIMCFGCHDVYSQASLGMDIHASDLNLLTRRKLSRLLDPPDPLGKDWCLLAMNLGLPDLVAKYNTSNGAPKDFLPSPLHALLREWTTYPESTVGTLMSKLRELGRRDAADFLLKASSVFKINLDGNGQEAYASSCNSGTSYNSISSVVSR

inhibition at 1 µM (DAPK1): -15%
IC50 (HT-29 [1]): 28.8 ± 0.4 µM
IC50 (HCT-116 [2]): 18.2 ± 0.9 µM
GI50 (HT-29 [3]): 10.4 ± 0.6 µM
GI50 (HCT-116 [4]): 14.7 ± 0.8 µM
inhibition at 1 µM (EPHA3): 2%
inhibition at 1 µM (VRK2): 3%
inhibition at 1 µM (TGFBR1 (ALK5)): 24%
inhibition at 1 µM (MAP2K1 (MEK1)): 4%
inhibition at 1 µM (BRAF): 16%
inhibition at 1 µM (WEE1): 44%
inhibition at 1 µM (ICK): 32%
inhibition at 1 µM (LIMK2): 30%
inhibition percentages across the panel of 40 kinases [5]: below 50%
Structure (SMILES): O=C(/C=C/c1ccc(O)c(O)c1)CCCCn1ccc2c(O)cccc21 [Compound 13a, (E)-1-(3,4-dihydroxyphenyl)-7-(4-hydroxy-1H-indol-1-yl)hept-1-en-3-one]
